Measured values taken from patent publication US20090258069A1, “Delivery of LFA-1 antagonists to the gastrointestinal system” (priority 2008, published 2009).
Like-named read-outs stand apart in the source and are kept apart here.

What was measured:
[1] = Phase 1 clinical trial, tear PK; format: in vivo, human
Description: A 48-hour post-dose sample was obtained following Day 1, 14, and 27.

[2] = Single dose ocular and IV ADME with [^14C]-Compound 12 in rats, quantitative whole body autoradiography; format: in vivo, rat; details: for Compound 12 Concentration, Aqueous humor / Compound 12 Concentration, Conjunctiva (bulbar) / Compound 12 Concentration, Conjunctiva (palpebral) / Compound 12 Concentration, Cornea / Compound 12 Concentration, Iris-ciliary body / Compound 12 Concentration, Lens / Compound 12 Concentration, Optic Nerve / Compound 12 Concentration, Retina and Choroid (with RPE) / Compound 12 Concentration, Sclera / Compound 12 Concentration, Vitreous Humor: ocular dosing in rats; for excretion in feces, of the administered radioactivity: 0 to 168 hours postdose
Description: Quantitative whole body […] assessments were performed.
Little or no drug is observed in systemic distribution.

in vivo [3] = details: rabbit, topical or ocular
[4] = Skin transport studies on microtomed human skin; format: in vitro ADME; details: 1% (w/w) prototypes; [^14C]-Compound 12
Description: Prototypes have been developed and tested on microtomed human skin from elective surgery at 1% (w/w). The forms include gels, ointment, or lotion. […] Skin transport studies performed with LC/MS/MS analysis indicate high Compound 12 levels in epidermis and dermis and low levels in the receiver.

in vivo [5] = details: rat, iv
[6] = Tear PK after a single topical ocular instillation in rabbits
dogs (beagles) = assay: Cardiovascular effects in conscious telemetry-instrumented dogs, IV bolus; format: in vivo, dog; details: IV bolus injection
[7] = Acute toxicity, single dose IV in rats; details: rat, in vivo
Description: 4. Acute Toxicity Studies: For single dose IV in rats, the no observable adverse effect level (NOAEL) was 10 mg/kg IV. For escalating single dose IV and 7-day repeated dose with TK (toxicokinetics) in dogs, the NOAEL was 10 mg/kg IV. For single dose ocular tolerance in rabbits, the NOAEL was 3.5 mg/eye/3× per day (10%).

[8] = system: SEB stimulated IL-2 release in whole human blood; assay: cells; format: cell-based; details: read-out: IC50 inhibition of SEB stimulated IL-2 release in whole human blood
[9] = system: human mononuclear cells (PBMC) stimulated with staphylococcal enterotoxin B (SEB); assay: cells; format: cell-based
[10] = 13-week IV toxicity study in rats with 4-week recovery (with plasma exposure); details: rat; for AUC: AUC0-n
in vivo [11] = details: dog, iv
rabbits = assay: 13-week ocular toxicity study in rabbits with 4-week recovery (with TK); details: (3%)
[12] = 0.5 hour postdose, ocular 1 mg/eye
[13] = 0.5 hour postdose, ocular 1 mg/eye, male Sprague Dawley, above upper limit of quantification
[14] = 2 hours postdose, ocular 1 mg/eye
[15] = 8 hours postdose, ocular 1 mg/eye
[16] = 24 hours postdose, ocular 1 mg/eye
[17] = rabbit, in vivo, topical or ocular, 1.05 mg
[18] = single instillation of 0.1, 1.0 or 3.0% dose strength
[19] = 3 mg/kg, 3 mg/kg daily IV bolus, Day 1
[20] = 3 mg/kg, 3 mg/kg daily IV bolus, Week 13
[21] = 10 mg/kg, 10 mg/kg daily IV bolus, Day 1
[22] = 10 mg/kg, 10 mg/kg daily IV bolus, Week 13
[23] = 30 mg/kg, 30 mg/kg daily IV bolus, Day 1
[24] = 30 mg/kg, 30 mg/kg daily IV bolus, Week 13

CS(=O)(=O)c1cccc(C[C@H](NC(=O)c2c(Cl)cc3c(c2Cl)CCN(C(=O)c2ccc4ccoc4c2)C3)C(=O)O)c1 [Compound 12]
accumulation in tear with multiple ocular dose administration ([1]; BID and TID): no obvious evidence of accumulation
tear AUC and Cmax values ([1]; dosing day 1, maintained throughout the trial): Dose related increases
Compound 12 Concentration, Aqueous humor ([2]; 0.5 hour after administration): 1770 ng Equivalents [^14C]-Compound 12/g tissue
Compound 12 Concentration, Conjunctiva (bulbar) ([2]; 0.5 hour after administration): 31500 ng Equivalents [^14C]-Compound 12/g tissue
Compound 12 Concentration, Conjunctiva (palpebral) ([2]; 0.5 hour after administration): 26300 ng Equivalents [^14C]-Compound 12/g tissue
Compound 12 Concentration, Cornea ([2]; 0.5 hour after administration): 17150 ng Equivalents [^14C]-Compound 12/g tissue
Compound 12 Concentration, Iris-ciliary body ([2]; 0.5 hour after administration): 17550 ng Equivalents [^14C]-Compound 12/g tissue
Compound 12 Concentration, Lens ([2]; 0.5 hour after administration): 38.8 ng Equivalents [^14C]-Compound 12/g tissue
Compound 12 Concentration, Optic Nerve ([2]; 0.5 hour after administration): 796 ng Equivalents [^14C]-Compound 12/g tissue
Compound 12 Concentration, Retina and Choroid (with RPE) ([2]; 0.5 hour after administration): 510 ng Equivalents [^14C]-Compound 12/g tissue
Compound 12 Concentration, Sclera ([2]; 0.5 hour after administration): 2750 ng Equivalents [^14C]-Compound 12/g tissue
Compound 12 Concentration, Vitreous Humor ([2]; 0.5 hour after administration): 1330 ng Equivalents [^14C]-Compound 12/g tissue
radioactivity concentration, eye [2, 12]: 18100 ng equivalents [^14C]-Compound 12/g
radioactivity concentration, kidney [2, 12]: 151 ng equivalents [^14C]-Compound 12/g
radioactivity concentration, liver [2, 12]: 272 ng equivalents [^14C]-Compound 12/g
radioactivity concentration, uveal tract [2, 12]: 9330 ng equivalents [^14C]-Compound 12/g
radioactivity concentration, esophageal contents [2, 13]: 399000 ng equivalents [^14C]-Compound 12/g
radioactivity concentration, nasal turbinates [2, 13]: 352000 ng equivalents [^14C]-Compound 12/g
radioactivity concentration, small intestinal contents [2, 13]: 349000 ng equivalents [^14C]-Compound 12/g
decline of radioactivity concentration, esophageal contents [2, 14]: ~100 fold
decline of radioactivity concentration, esophagus [2, 14]: approximately 50 fold
Compound 12 Concentration, Aqueous humor ([2]; 4.0 hours after administration): 116 ng Equivalents [^14C]-Compound 12/g tissue
Compound 12 Concentration, Conjunctiva (bulbar) ([2]; 4.0 hours after administration): 4480 ng Equivalents [^14C]-Compound 12/g tissue
Compound 12 Concentration, Conjunctiva (palpebral) ([2]; 4.0 hours after administration): 21830 ng Equivalents [^14C]-Compound 12/g tissue
Compound 12 Concentration, Cornea ([2]; 4.0 hours after administration): 1346 ng Equivalents [^14C]-Compound 12/g tissue
Compound 12 Concentration, Iris-ciliary body ([2]; 4.0 hours after administration): 500 ng Equivalents [^14C]-Compound 12/g tissue
Compound 12 Concentration, Lens ([2]; 4.0 hours after administration): 9.69 ng Equivalents [^14C]-Compound 12/g tissue
Compound 12 Concentration, Optic Nerve ([2]; 4.0 hours after administration): 0 ng Equivalents [^14C]-Compound 12/g tissue
Compound 12 Concentration, Retina and Choroid (with RPE) ([2]; 4.0 hours after administration): 46.7 ng Equivalents [^14C]-Compound 12/g tissue
Compound 12 Concentration, Sclera ([2]; 4.0 hours after administration): 387 ng Equivalents [^14C]-Compound 12/g tissue
Compound 12 Concentration, Vitreous Humor ([2]; 4.0 hours after administration): 183 ng Equivalents [^14C]-Compound 12/g tissue
radioactivity concentration, cecum contents [2, 15]: 57600 ng equivalents [^14C]-Compound 12/g
radioactivity concentration, large intestinal contents [2, 15]: 133000 ng equivalents [^14C]-Compound 12/g
radioactivity concentration, uveal tract ([2]; 12 hours postdose, ocular 1 mg/eye): 610 ng equivalents [^14C]-Compound 12/g
radioactivity concentration, cecum contents [2, 16]: 5870 ng equivalents [^14C]-Compound 12/g
radioactivity concentration, large intestinal contents [2, 16]: 18000 ng equivalents [^14C]-Compound 12/g
excretion in feces, of the administered radioactivity ([2]; IV administration 10 mg/kg): ~95%
excretion in feces, of the administered radioactivity ([2]; ocular administration 1 mg/eye): approximately 60%
Urinary excretion, of the administered radioactivity ([2]; ocular or IV): up to 2%
binding to melanin ([2]; pigmented vs albino rats): did not preferentially bind to melanin
levels in conjunctiva/cornea ([2]; rat, for 16 hrs): > 100 nM
metabolites in pooled plasma, urine and fecal homogenates ([2]; up to 168 hrs, topical ocular or IV dose): no metabolites were isolated
AUC (in vivo [3]; 0.105 mg): 18900 ng·h/mL
Cmax (in vivo [3]; 0.105 mg): 34000 ng/mL
AUC (in vivo [3]; 0.35 mg): 18900 ng·h/mL
Cmax (in vivo [3]; 0.35 mg): 21500 ng/mL
Compound 12 in dermis [4]: greater than 10 micromolar
dose penetration [4]: 2-4%
NOAEL at 13 week (in vivo [5]): 30 mg/kg
AUC [6, 17]: 183000 ng·h/mL
Cmax [6, 17]: 314000 ng/mL
time of return of tear concentration to baseline [6, 18]: ≤ 4 h
time to maximal mean tear concentration [6, 18]: ≤ 30 min
effects on electrocardiography or hemodynamic parameters (dogs (beagles)): No effects
NOAEL [7]: 10 mg/kg
IC50 [8]: 0.069 µM
EC50 ([9]; read-out: EC50 Cytokine Release GM-CSF): 0.545 µM
EC50 ([9]; read-out: EC50 Cytokine Release IFNγ): 0.0016 µM
EC50 ([9]; read-out: EC50 Cytokine Release IL-1α): 0.24 µM
EC50 ([9]; read-out: EC50 Cytokine Release IL-1β): 0.36 µM
EC50 ([9]; read-out: EC50 Cytokine Release IL-2): 0.0018 µM
EC50 ([9]; read-out: EC50 Cytokine Release IL-3): 52.2 µM
EC50 ([9]; read-out: EC50 Cytokine Release IL-4): 0.143 µM
EC50 ([9]; read-out: EC50 Cytokine Release IL-5): 0.11 µM
EC50 ([9]; read-out: EC50 Cytokine Release IL-6): 43.5 µM
EC50 ([9]; read-out: EC50 Cytokine Release IL-10): 0.147 µM
EC50 ([9]; read-out: EC50 Cytokine Release IL-12p40): > 1000 µM
EC50 ([9]; read-out: EC50 Cytokine Release IL-13): 0.36 µM
EC50 ([9]; read-out: EC50 Cytokine Release IP-10): 1.16 µM
EC50 ([9]; read-out: EC50 Cytokine Release MCP-1): 0.005 µM
EC50 ([9]; read-out: EC50 Cytokine Release MIP-1α): 0.02 µM
EC50 ([9]; read-out: EC50 Cytokine Release TNF-α): 0.076 µM
IC50 ([9]; read-out: IC50 values in in vitro cell assays (cell attachment and SEB IL-2 release)): 0.002 µM
AUC [10, 19]: 148 ng·h/mL
AUC [10, 20]: 241 ng·h/mL
Cmax [10, 19]: 305 ng/mL
Cmax [10, 20]: 378 ng/mL
AUC [10, 21]: 536 ng·h/mL
AUC [10, 22]: 907 ng·h/mL
Cmax [10, 21]: 1050 ng/mL
Cmax [10, 22]: 1690 ng/mL
AUC [10, 23]: 2350 ng·h/mL
AUC [10, 24]: 7470 ng·h/mL
Cmax [10, 23]: 5120 ng/mL
Cmax [10, 24]: 16900 ng/mL
NOAEL at 4 week (in vivo [11]): 10 mg/kg
NOAEL (rabbits): 1.05 mg/eye/3× per day
